Experimental data reported in ChEMBL document CHEMBL1150022, “O-benzyl hydroxyproline as a bioisostere for Phe-Pro: Novel dipeptide thrombin inhibitors” (Bioorg Med Chem Lett, 1996).
Where a SMILES comes first, the peptide text is derived from it. [ ]: non-standard residue; d: D form. The star is where a group is joined. Hydrocinnamoyl = O=C(CCc1ccccc1)*; Hyp = O=C(O)[C@@H]1C[C@@H](O)CN1; Propionyl = CCC(=O)*; Bn = c1ccc(C*)cc1; Ms = CS(=O)(=O)*; CH2Cl = ClC*

Target: Prothrombin (Homo sapiens, UniProt P00734)
Assay: Inhibition of thrombin

Structure (SMILES) | IC50 [µM]
CC(=O)N1C[C@H](OCCC(c2ccccc2)c2ccccc2)C[C@H]1C(=O)N[C@@H](CCCN=C(N)N)C(=O)CCl | 0.01
N=C(N)NCCC[C@H](NC(=O)[C@@H]1CCCN1C(=O)[C@H](N)Cc1ccccc1)C(=O)CCl | 0.0015
CC(=O)N1C[C@H](CCc2ccccc2)C[C@H]1C(=O)N[C@@H](CCCN=C(N)N)C(=O)CCl | 0.04
CC(=O)N1C[C@H](OCCCc2ccccc2)C[C@H]1C(=O)N[C@@H](CCCN=C(N)N)C(=O)CCl | 0.014
NC(N)=NCCC[C@H](NC(=O)[C@@H]1C[C@@H](OCc2ccccc2)CN1C(=O)[C@H](N)Cc1ccccc1)C(=O)CCl | 0.003
CC(=O)N1C[C@@H](OCc2ccccc2)C[C@H]1C(=O)N[C@@H](CCCNC(=N)N)C(=O)CCl | 4.6
CCCCO[C@@H]1C[C@@H](C(=O)N[C@@H](CCCNC(=N)N)C(=O)CCl)N(C(C)=O)C1 | 0.0216
CCN1C[C@H](OCc2ccccc2)C[C@H]1C(=O)N[C@@H](CCCNC(=N)N)C(=O)CCl | 8.6
CC(=O)N1C[C@H](OCc2ccccc2)C[C@H]1C(=O)N[C@@H](CCCNC(=N)N)C(=O)CCl | 0.0009
N=C(N)NCCC[C@H](NC(=O)[C@@H]1C[C@H](OCc2ccccc2)CN1C(=O)[C@H](N)Cc1ccccc1)C(=O)CCl | 0.0072
CC(=O)N1C[C@H](OCC2CCCCC2)C[C@H]1C(=O)N[C@@H](CCCN=C(N)N)C(=O)CCl | 0.0049
CC(=O)N1CCC[C@H]1C(=O)N[C@@H](CCCN=C(N)N)C(=O)CCl (Ac-Pro-Arg-CH2Cl) | 1.35
N=C(N)NCCC[C@H](NC(=O)[C@@H]1C[C@@H](OCc2ccccc2)CN1C(=O)CCc1ccccc1)C(=O)CCl (Hydrocinnamoyl-[Hyp](Bn)-Arg-CH2Cl) | 0.0317
CS(=O)(=O)N1C[C@H](OCc2ccccc2)C[C@H]1C(=O)N[C@@H](CCCNC(=N)N)C(=O)CCl (Ms-[Hyp](Bn)-Arg-CH2Cl) | 0.024
CCC(=O)N1C[C@H](OCc2ccccc2)C[C@H]1C(=O)N[C@@H](CCCN=C(N)N)C(=O)CCl (Propionyl-[Hyp](Bn)-Arg-CH2Cl) | 0.013
